The source of these data is ChEMBL document CHEMBL5096210, “Discovery of Betulinic Acid Derivatives as Potent Intestinal Farnesoid X Receptor Antagonists to Ameliorate Nonalcoholic Steatohepatitis” (J Med Chem, 2022).

For orientation: IC50 means the point on the concentration scale where inhibition reaches its midpoint.

For one data set, the target named is T1, Bile acid receptor (Homo sapiens, UniProt Q96RI1).
T1 sequence (Q96RI1 whole entry): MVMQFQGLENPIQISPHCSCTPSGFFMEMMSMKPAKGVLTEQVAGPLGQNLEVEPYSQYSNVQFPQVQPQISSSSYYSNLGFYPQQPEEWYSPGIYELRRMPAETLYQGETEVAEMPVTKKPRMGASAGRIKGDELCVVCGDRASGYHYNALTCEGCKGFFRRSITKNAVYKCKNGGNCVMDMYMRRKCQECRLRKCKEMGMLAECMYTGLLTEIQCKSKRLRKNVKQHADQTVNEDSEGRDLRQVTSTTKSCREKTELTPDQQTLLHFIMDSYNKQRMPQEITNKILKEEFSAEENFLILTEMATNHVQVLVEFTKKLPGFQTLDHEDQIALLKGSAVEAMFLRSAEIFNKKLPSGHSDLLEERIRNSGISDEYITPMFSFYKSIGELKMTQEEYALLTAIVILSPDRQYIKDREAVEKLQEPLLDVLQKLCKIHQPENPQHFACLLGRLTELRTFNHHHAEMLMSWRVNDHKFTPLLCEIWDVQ
Briefly: Antagonist activity at FXR (unknown origin) expressed in HEK293T cells cotransfected with pCMV-Script-hFXR/pGL4.11-hSHP-Luciferase incubated for 24 hrs in presence of GW4064 by Steady-glo luciferase assay. Type of data set: cell-based.

The nature of data set [1]: Cytotoxicity against HEK293T cells cotransfected with pCMV-Script-hFXR/pGL4.11-hSHP-Luciferase incubated for 24 hrs in presence of GW4064 by celltiter-blue cell viability assay. Type of data set: toxicity, cell-based, HEK-293T. Particulars: human.

A value given as a limit tells only on which side of the number the result lay.

On to `CC(C)[C@@H]1CC[C@]2(C(=O)NCC(=O)O)CC[C@]3(C)[C@H](CC[C@@H]4[C@@]5(C)CC[C@@H](OC(=O)c6ccccc6)C(C)(C)[C@@H]5CC[C@]43C)[C@@H]12`, for which the IC50 at Bile acid receptor was determined as 1.1 µM. Also, the half-maximal inhibitory concentration (IC50) at 24 h in data set [1] was determined as 35 µM.
Consider `CCCC(=O)O[C@@H]1CC[C@]2(C)[C@H]3CC[C@@H]4[C@H]5[C@H](C(C)C)CC[C@]5(C(=O)NCC(=O)NS(C)(=O)=O)CC[C@@]4(C)[C@]3(C)CC[C@H]2C1(C)C`, for which the IC50 at Bile acid receptor stood at 12.1 µM. For the same compound, the IC50 at 24 h in data set [1] is > 100 µM.
For `CCCC(=O)O[C@@H]1CC[C@]2(C)[C@H]3CC[C@@H]4[C@H]5[C@H](C(C)C)CC[C@]5(C(=O)NCCC(=O)O)CC[C@@]4(C)[C@]3(C)CC[C@H]2C1(C)C`, in that order: 9.9 µM and > 100 µM.
In the case of `CCCC(=O)O[C@@H]1CC[C@]2(C)[C@H]3CC[C@@H]4[C@H]5[C@H](C(=O)CO)CC[C@]5(C(=O)NCC(=O)O)CC[C@@]4(C)[C@]3(C)CC[C@H]2C1(C)C`, the IC50 at 24 h in data set [1] was found to be 25.3 µM.
Take `CCC(=O)O[C@@H]1CC[C@]2(C)[C@H]3CC[C@@H]4[C@H]5[C@H](C(C)C)CC[C@]5(C(=O)NCC(=O)O)CC[C@@]4(C)[C@]3(C)CC[C@H]2C1(C)C`: the IC50 at Bile acid receptor came out at 9.1 µM. Moreover, the IC50 at 24 h in data set [1] is > 100 µM.
For `CC(C)[C@@H]1CC[C@]2(C(=O)O)CC[C@@H]3[C@H](CC[C@H]4[C@@]3(C)CC[C@H]3C(C)(C)[C@H](O)CC[C@]43C)[C@@H]12`, in that order: 7.9 µM and 61.7 µM.
For `COc1ccc(C(=O)O[C@@H]2CC[C@]3(C)[C@H]4CC[C@@H]5[C@H]6[C@H](C(C)C)CC[C@]6(C(=O)NCC(=O)O)CC[C@@]5(C)[C@]4(C)CC[C@H]3C2(C)C)cc1` the same measures were 4.1 µM and > 100 µM.
For `CC(C)[C@@H]1CC[C@]2(C(=O)NCC(=O)O)CC[C@]3(C)[C@H](CC[C@@H]4[C@@]5(C)CC[C@@H](OC(=O)C6CC6)C(C)(C)[C@@H]5CC[C@]43C)[C@@H]12` the same measures were 10 µM and > 100 µM.
For the compound `CCCC(=O)O[C@@H]1CC[C@]2(C)[C@H]3CC[C@@H]4[C@H]5[C@H](C(C)C)CC[C@]5(C(=O)OCC(=O)O)CC[C@@]4(C)[C@]3(C)CC[C@H]2C1(C)C`, at Bile acid receptor, the IC50 amounted to 1.9 µM. For the same compound, in data set [1], the 50% inhibitory concentration (IC50) at 24 h worked out at 29.2 µM.
Consider `CCNS(=O)(=O)O[C@@H]1CC[C@]2(C)[C@H]3CC[C@@H]4[C@H]5[C@H](C(C)C)CC[C@]5(C(=O)NCC(=O)O)CC[C@@]4(C)[C@]3(C)CC[C@H]2C1(C)C`, for which the IC50 at 24 h in data set [1] was > 100 µM.
For `CC(C)C(=O)O[C@@H]1CC[C@]2(C)[C@H]3CC[C@@H]4[C@H]5[C@H](C(C)C)CC[C@]5(C(=O)NCC(=O)O)CC[C@@]4(C)[C@]3(C)CC[C@H]2C1(C)C`, at Bile acid receptor, the IC50 was 4.6 µM. Further, the IC50 at 24 h in data set [1] is > 100 µM.
For `CCCC(=O)O[C@@H]1CC[C@]2(C)[C@H]3CC[C@@H]4[C@H]5[C@H]([C@@H](C)C(=O)O)CC[C@]5(C(=O)NCC(=O)O)CC[C@@]4(C)[C@]3(C)CC[C@H]2C1(C)C` the same measures were 25.7 µM and 97.2 µM.
For `CCCC(=O)O[C@H]1CC[C@]2(C)[C@H]3CC[C@@H]4[C@H]5[C@H](C(C)C)CC[C@]5(C(=O)NCC(=O)O)CC[C@@]4(C)[C@]3(C)CC[C@H]2C1(C)C` the same measures were 13 µM and > 100 µM.
For `CCCS(=O)(=O)O[C@@H]1CC[C@]2(C)[C@H]3CC[C@@H]4[C@H]5[C@H](C(C)C)CC[C@]5(C(=O)NCC(=O)O)CC[C@@]4(C)[C@]3(C)CC[C@H]2C1(C)C` the same measures were 14 µM and > 100 µM.
As for `CCCCC(=O)O[C@@H]1CC[C@]2(C)[C@H]3CC[C@@H]4[C@H]5[C@H](C(C)C)CC[C@]5(C(=O)NCC(=O)O)CC[C@@]4(C)[C@]3(C)CC[C@H]2C1(C)C`, the IC50 on Bile acid receptor came to 3 µM. Further, the IC50 at 24 h in data set [1] is > 100 µM.
For `CC(C)[C@@H]1CC[C@]2(C(=O)NCC(=O)O)CC[C@]3(C)[C@H](CC[C@@H]4[C@@]5(C)CC[C@@H](OC(=O)C6CCC6)C(C)(C)[C@@H]5CC[C@]43C)[C@@H]12` the same measures were 4.1 µM and > 100 µM.
For `CCNC(=O)O[C@@H]1CC[C@]2(C)[C@H]3CC[C@@H]4[C@H]5[C@H](C(C)C)CC[C@]5(C(=O)NCC(=O)O)CC[C@@]4(C)[C@]3(C)CC[C@H]2C1(C)C`, in that order: 3.4 µM and 56 µM.
For `CCCC(=O)O[C@@H]1CC[C@]2(C)[C@H]3CC[C@@H]4[C@H]5[C@H](C(C)C)CC[C@]5(C(=O)NCCS(=O)(=O)O)CC[C@@]4(C)[C@]3(C)CC[C@H]2C1(C)C` the same measures were > 100 µM and > 100 µM.
On to `CCCC(=O)O[C@@H]1CC[C@]2(C)[C@H]3CC[C@@H]4[C@H]5[C@H](C(C)C)CC[C@]5(NC(=O)OCC(=O)O)CC[C@@]4(C)[C@]3(C)CC[C@H]2C1(C)C`, for which the IC50 at Bile acid receptor was determined as 0.9 µM. In addition, the IC50 at 24 h in data set [1] is 1 µM.
For `CCCC(=O)O[C@@H]1CC[C@]2(C)[C@H]3CC[C@@H]4[C@H]5[C@H]([C@@H](C)CO)CC[C@]5(C(=O)NCC(=O)O)CC[C@@]4(C)[C@]3(C)CC[C@H]2C1(C)C` the same measures were 14.1 µM and > 100 µM.
For `CC(C)[C@@H]1CC[C@]2(C(=O)NCC(=O)O)CC[C@]3(C)[C@H](CC[C@@H]4[C@@]5(C)CC[C@@H](OC(=O)c6ccco6)C(C)(C)[C@@H]5CC[C@]43C)[C@@H]12`, in that order: > 100 µM and > 100 µM.
In the case of `CCCC(=O)O[C@@H]1CC[C@]2(C)[C@H]3CC[C@@H]4[C@H]5[C@H](C(C)C)CC[C@]5(C(=O)N[C@@H](C)C(=O)O)CC[C@@]4(C)[C@]3(C)CC[C@H]2C1(C)C`, the IC50 at 24 h in data set [1] was 37.7 µM.
For the compound `CCOC(=O)O[C@@H]1CC[C@]2(C)[C@H]3CC[C@@H]4[C@H]5[C@H](C(C)C)CC[C@]5(C(=O)NCC(=O)O)CC[C@@]4(C)[C@]3(C)CC[C@H]2C1(C)C`, the IC50 at Bile acid receptor is 7.3 µM. For the same compound, the IC50 at 24 h in data set [1] is > 100 µM.
For `CCCC(=O)O[C@@H]1CC[C@]2(C)[C@H]3CC[C@@H]4[C@H]5[C@H](C(C)=O)CC[C@]5(C(=O)NCC(=O)O)CC[C@@]4(C)[C@]3(C)CC[C@H]2C1(C)C`, in that order: 10 µM and 44.3 µM.
`CC(C)[C@@H]1CC[C@]2(C(=O)NCC(=O)O)CC[C@]3(C)[C@H](CC[C@@H]4[C@@]5(C)CC[C@@H](OC(=O)C6CCCC6)C(C)(C)[C@@H]5CC[C@]43C)[C@@H]12`: the IC50 on Bile acid receptor came out at 1.6 µM. The IC50 at 24 h in data set [1] came out at 2 µM.
As to `CC(C)[C@@H]1CC[C@]2(C(=O)NCC(=O)O)CC[C@]3(C)[C@H](CC[C@@H]4[C@@]5(C)CC[C@@H](OC(=O)c6ccc(F)cc6)C(C)(C)[C@@H]5CC[C@]43C)[C@@H]12`, the IC50 at 24 h in data set [1] came out at 55.7 µM.
Consider `CCCC(=O)O[C@@H]1CC[C@]2(C)[C@H]3CC[C@@H]4[C@H]5[C@H](C(C)C)CC[C@]5(NC(=O)NCC(=O)O)CC[C@@]4(C)[C@]3(C)CC[C@H]2C1(C)C`, for which, at Bile acid receptor, the IC50 was determined as 1.1 µM. In addition, the half-inhibitory concentration (IC50) at 24 h in data set [1] was found to be 1.3 µM.
